From US20170296460A1, “METHOD OF IMPROVING THE APPEARANCE OF PERIORBITAL DYSCHROMIA” (The Procter & Gamble Company, priority 2016, published 2017)

Tested on: B16-F1 mouse melanoma cell line
Experiment: B16 melanin synthesis inhibition assay
Type: cell-based
Conditions: B16-F1 cells, OD 410 nm
Procedure: In this example, a commercially available B16-F1 mouse melanoma cell line from American Tissue Culture Collection, Virginia, USA was employed in a conventional melanin synthesis inhibition assay. The cell culture medium used in the assay is 500 mL of Dulbecco's Modified Eagle's Medium (DMEM), 50 mL Fetal Bovine Serum (FBS), and 5 mL of penicillin-streptomycin liquid. B16-F1 cells that are cultured in this medium and grown to greater than 90% confluency will synthesize melanin. While not intending to be bound by any theory, it is hypothesized that the melanin synthesis is stimulated by the culture medium and/or stress induced by growth to a high confluency. […] Equipment used in the assay include a CO2 incubator, such as a Forma Series Model 3110 by Therma Scientific, Massachusetts, USA; a hemocytometer, such as a Bright Line model by Hauser Scientific, Pennsylvania, USA; and a UV-Visible Spectrum Plate Reader, such as a SpectraMax250 from Molecular Devices, California, USA. […] Day 3: The cells from the T-150 flask are trypsinized, and the concentration of cells is determined using the hemacytometer. […] Read the 96 well plate using the UV-Vis Plate Reader at 410 nm to optically measure the amount of melanin produced between wells that are treated with the pumpkin seed extract and control wells that are not. […] The concentration of test agent needed to provide the IC 50 is recorded.

- Concentration Needed for IC 50: 0.008 v/v
Structure (SMILES): Oc1ccc(OC2CCCCO2)cc1 (stereo not shown) [Deoxyarbutin]
